Data as given in patent publication US7718715B2, “pH-modified latex comprising a synergistic combination of biocides” (S.C. Johnson & Son, Inc., priority 2004, dated 2010).

Tests used:
Candida albicans #10231 = assay: Challenge Test (Antimicrobial Effectiveness Test), yeast inoculum; assay type: cell-based; parameters: key to Challenge Test result: Yeast C. albicans: Fail: Recovery of surviving organisms at 14 days was a failing result for the challenge test; details: for Challenge Test result: Yeast C. albicans: stabilized acrylic latex A
Description: The following cultures were obtained from American Type Culture Collection (ATCC) at 10801 University Boulevard, Manassas, Va. 20110-2209: Escherichia coli #11229, Pseudomonas aeruginosa #15442, Candida albicans #10231, Aspergillus niger #6275.
The yeast inoculum was 0.10 ml of a 72-hr±4 hr culture of C. albicans in 25 grams of sample to give approximately 2×10^5 CFU/g. The C. albicans culture was grown in Potato Dextrose Broth (Difco Laboratories, Detroit, Mich.) at 28° C.
(§1) Each of the 25-g samples were inoculated or challenged with 0.10 ml of the bacterial inoculum, the yeast inoculum, and the mold inoculum respectively on day-0 and day-14. All samples were stored at ambient temperature. Each sample (10 microliter) was streaked on appropriate agar plates (bacteria on Tryptic Soy Agar (Difco Laboratories, Detroit, Mich.) plates with neutralizer and yeast/mold on Potato Dextrose Agar (Difco Laboratories, Detroit, Mich.) plates with neutralizer) on day-1, day-2, day-3, day-7, day-14, day-15, day-16, day-17, day-21, and day-28 to test for survivors. Streaked plates were incubated at appropriate temperature and time (48-hr at 35±2° C. for bacteria and 72-hr at 28±2° C. for yeast/mold). On day-14, each sample was re-inoculated with appropriate inoculum after streaking on agar plates. Plates were read after incubation time. Recovery of surviving organisms at 14 days was a failing result for the challenge test.
Biocides were always added after the reaction has been completed and after the batch has been cooled to <50° C. The desired temperature was dependent on the specific biocide. Many biocides become deactivated if exposed to high temperatures for an extended time. Each biocide was diluted with about 5× its weight with DI water and slowly added to the batch with good agitation. The dilution is to prevent the biocide from shocking the latex. The batch was mixed for a minimum of 20 minutes after the biocide was added to ensure good incorporation. If any temporary destabilization to the latex had occurred, it had time to recover prior to filtration.
The Challenge Test is a qualitative laboratory procedure used to differentiate poorly and marginally preserved products from well-preserved products. Products are intentionally inoculated with test organisms and then evaluated by use of streak plating technique to determine if microbial reduction has been attained.

Aspergillus niger #6275 = assay: Challenge Test (Antimicrobial Effectiveness Test), mold inoculum; assay type: cell-based; details: stabilized acrylic latex A
Description: The following cultures were obtained from American Type Culture Collection (ATCC) at 10801 University Boulevard, Manassas, Va. 20110-2209: Escherichia coli #11229, Pseudomonas aeruginosa #15442, Candida albicans #10231, Aspergillus niger #6275. The mold inoculum was 0.10 ml of A. niger culture specimen in 25 grams of sample to give approximately 2×10^5 CFU/g. The culture specimen was obtained from 7-day-old A. niger culture grown on Sabouraud Dextrose Agar (Difco Laboratories, Detroit, Mich.) with 0.2% Triton X-100 in 0.85% saline. Each of the 25-g samples were inoculated or challenged with 0.10 ml of the bacterial inoculum, the yeast inoculum, and the mold inoculum respectively on day-0 and day-14. All samples were stored at ambient temperature. Each sample (10 microliter) was streaked on appropriate agar plates (bacteria on Tryptic Soy Agar (Difco Laboratories, Detroit, Mich.) plates with neutralizer and yeast/mold on Potato Dextrose Agar (Difco Laboratories, Detroit, Mich.) plates with neutralizer) on day-1, day-2, day-3, day-7, day-14, day-15, day-16, day-17, day-21, and day-28 to test for survivors. Streaked plates were incubated at appropriate temperature and time (48-hr at 35±2° C. for bacteria and 72-hr at 28±2° C. for yeast/mold). On day-14, each sample was re-inoculated with appropriate inoculum after streaking on agar plates. Plates were read after incubation time. Recovery of surviving organisms at 14 days was a failing result for the challenge test. Biocides were always added after the reaction has been completed and after the batch has been cooled to <50° C. The desired temperature was dependent on the specific biocide. Many biocides become deactivated if exposed to high temperatures for an extended time. Each biocide was diluted with about 5× its weight with DI water and slowly added to the batch with good agitation. The dilution is to prevent the biocide from shocking the latex. The batch was mixed for a minimum of 20 minutes after the biocide was added to ensure good incorporation. If any temporary destabilization to the latex had occurred, it had time to recover prior to filtration. The Challenge Test is a qualitative laboratory procedure used to differentiate poorly and marginally preserved products from well-preserved products. Products are intentionally inoculated with test organisms and then evaluated by use of streak plating technique to determine if microbial reduction has been attained.

[1] = tested on: Escherichia coli #11229, Pseudomonas aeruginosa #15442; assay: Challenge Test (Antimicrobial Effectiveness Test), bacterial inoculum (1:1 mixture); assay type: cell-based, E. coli & P. aeruginosa; details: stabilized acrylic latex A
Description: The following cultures were obtained from American Type Culture Collection (ATCC) at 10801 University Boulevard, Manassas, Va. 20110-2209: Escherichia coli #11229, Pseudomonas aeruginosa #15442, Candida albicans #10231, Aspergillus niger #6275. The bacterial inoculum was 0.10 ml of a 1:1 mixture of the 24-hr±4 hr culture of E. coli and P. aeruginosa in 25 grams of sample to give approximately 4×10^6 CFU/g. Both E. coli culture and the P. aeruginosa culture were grown in Nutrient Broth (Difco Laboratories, Detroit, Mich.) at 35° C. Each of the 25-g samples were inoculated or challenged with 0.10 ml of the bacterial inoculum, the yeast inoculum, and the mold inoculum respectively on day-0 and day-14. All samples were stored at ambient temperature. Each sample (10 microliter) was streaked on appropriate agar plates (bacteria on Tryptic Soy Agar (Difco Laboratories, Detroit, Mich.) plates with neutralizer and yeast/mold on Potato Dextrose Agar (Difco Laboratories, Detroit, Mich.) plates with neutralizer) on day-1, day-2, day-3, day-7, day-14, day-15, day-16, day-17, day-21, and day-28 to test for survivors. Streaked plates were incubated at appropriate temperature and time (48-hr at 35±2° C. for bacteria and 72-hr at 28±2° C. for yeast/mold). On day-14, each sample was re-inoculated with appropriate inoculum after streaking on agar plates. Plates were read after incubation time. Recovery of surviving organisms at 14 days was a failing result for the challenge test. Biocides were always added after the reaction has been completed and after the batch has been cooled to <50° C. The desired temperature was dependent on the specific biocide. Many biocides become deactivated if exposed to high temperatures for an extended time. Each biocide was diluted with about 5× its weight with DI water and slowly added to the batch with good agitation. The dilution is to prevent the biocide from shocking the latex. The batch was mixed for a minimum of 20 minutes after the biocide was added to ensure good incorporation. If any temporary destabilization to the latex had occurred, it had time to recover prior to filtration. The Challenge Test is a qualitative laboratory procedure used to differentiate poorly and marginally preserved products from well-preserved products. Products are intentionally inoculated with test organisms and then evaluated by use of streak plating technique to determine if microbial reduction has been attained.

C. albicans & A. niger = assay: Challenge Test end point on yeast and mold and Synergy Index (Kull); assay type: cell-based; details: Dowicil 75 acting alone (QA); test stabilized acrylic latex A
Description: as §1, with “On day-14, each sample was re-inoculated with appropriate inoculum after streaking on agar plates.” left out, “Recovery of surviving organisms at 14 days was a failing result for the challenge test.” left out
Synergism was determined by the method described by F. C. […] Eisman, H. D. Sylwestrowicz, and R. L. Mayer in Applied Microbiology, Volume 9, pages 538-541, 1961 using the ratio determined by • Synergy Index (SI)=Qa/QA+Qb/QB=1 is additivity, <1 is synergism, and >1 is antagonism • where, • Qa=concentration of compound A, in the mixture, producing an end point • QA=concentration of compound A, acting alone, producing an end point • Qb=concentration of compound B, in the mixture, producing an end point • QB=concentration of compound B, acting alone, producing an end point

[2] = 0.20% Dowicil 75, 0.00% Bronopol, DN 12%, pH 6.3
[3] = 0.30% Dowicil 75, 0.00% Bronopol, DN 4%, pH 5.7
[4] = 0.40% Dowicil 75, 0.00% Bronopol, DN 4%, pH 5.75
[5] = 0.40% Dowicil 75, 0.00% Bronopol, DN 17%, pH 6.5

ClC=CC[N+]12CN3CN(CN(C3)C1)C2.[Cl-] [Dowicil 75, 1-(3-chloroallyl)-3,5,7-triaza-1-azoniaadamantane chloride]
Challenge Test result: Yeast C. albicans (Candida albicans #10231; [2]): Fail | Challenge Test result: Yeast C. albicans (Candida albicans #10231; [3]): Pass | killing of the yeast (C. albicans) (Candida albicans #10231; 0.4% DOWICIL 75, stabilized acrylic latex A with DN at 17%): failed to kill | Challenge Test result: Yeast C. albicans (Candida albicans #10231; [4]): Pass | Challenge Test result: Yeast C. albicans (Candida albicans #10231; [5]): Fail | control of Candida albicans (Candida albicans #10231; maximum allowable level, test stabilized acrylic latex): failed to control | Challenge Test result: Mold A. niger (Aspergillus niger #6275; [2]): Pass | Challenge Test result: Mold A. niger (Aspergillus niger #6275; [3]): Pass | Challenge Test result: Mold A. niger (Aspergillus niger #6275; [4]): Pass | Challenge Test result: Mold A. niger (Aspergillus niger #6275; [5]): Pass | Challenge Test result: Bacteria E. coli & P. aeruginosa [1, 2]: Pass | Challenge Test result: Bacteria E. coli & P. aeruginosa [1, 3]: Pass | Challenge Test result: Bacteria E. coli & P. aeruginosa [1, 4]: Pass | Challenge Test result: Bacteria E. coli & P. aeruginosa [1, 5]: Pass | Compound A end-point in % (C. albicans & A. niger): >0.4%
